Data: US20160067272A1, “METHODS FOR TREATING IMMUNE DISEASES” (priority 2013, published 2016)

What was measured:
naïve CD4+ T cells = experiment: Naïve CD4+ T cell differentiation without polarizing cytokines (Th0); format: cell-based, mouse
Description: It has been shown that NAD^+ can regulate T cell activation^36-38, but its role in T cell development was not shown. In this study, it was tested whether NAD^+ was able to regulate T cell differentiation in vitro. Naïve CD4^+ T cells were isolated from spleen of DBA mice and cultured for 96 hrs in presence of increasing NAD^+ concentration and in presence of recombinant IL-2 and stimulated with anti-CD3/CD28 antibodies. Cytokine expression and secretion were analyzed by flow cytometry and ELISA, respectively. […] Of note, the production of pro-inflammatory cytokines such as IL-6 and TNF-α or the immunosuppressive cytokine IL-10 were inhibited by NAD^| (FIG. 7A).
Single-cell leukocyte suspensions were obtained from spleens from 8-10 week old DBA mice and CD4^− T cells were isolated by negative selection using a CD4^+ T cell isolation kit (MILTENYI BIOTEC, Bergisch Gladbach, Germany). Cells were further sorted using α-CD4-PE (EBIOSCIENCE, San Diego, Calif.) and purities of CD4^+ T cells after isolation were >98%.
All recombinant cytokines and antibodies were purchased from EBIOSCIENCE except recombinant TGF-β cytokine (R&D SYSTEMS, Minneapolis, Minn.). After 96 hrs of culture supernatants and cells were collected and analyzed by ELISA and flow cytometry, respectively.
Fluorescently labeled anti-mouse α-CD4 (GK1.5), α-CD25 (PC61), α-IFN-γ (XMG1.2) and unlabeled α-CD16/CD32 (2.4G2) antibodies were obtained from BD BIOSCIENCES (San Jose, Calif.). Fluorescently labeled anti-mouse α-IL-4 (FJK-16s), α-IL-10 (JES5-16E3), α-IL-17A (eBio17B7), and anti-TGFβ (TW7-16B4) were obtained from eBIOSCIENCE (San Diego, Calif.). Intracellular staining for IL-4, IL-10, IL-17A, IFNγ and TGFβ was performed according to manufacturers' protocols. Splenocytes were re-stimulated in complete media (RPMI media containing 10% FCS, 1% L-Glutamine, 1% Penicillin/Streptomycin; all Bio Whittaker, Walkersville, Md.) for 4 hours at 37° C. with ionomycin, phorbol 12-myristate 13-acetate and Brefelding A (EBIOSCIENCE). Cells were fixed and permeabilized using CYTOFIX/CYTOPERM solution (BD BIOSCIENCES). Flow cytometry measurements of single-cell suspensions were performed on a FACSCalibur using standard procedures and data were analyzed using FLOWJO software (TREE STAR, Ashland, Oreg.).

Human nTregs = experiment: Human nTreg conversion into IL-17A producing cells; format: cell-based
Description: Several discrepancies have been reported for mechanisms promoting Th17 cell development in mice and human^15. […] In addition, it has been shown that IL-2 inhibits Th17 development^16. In contrast, human Th17 differentiation requires IL-1β and IL-6 and can be inhibited by TFG-β and IL-2^34. […] Therefore, it was tested whether NAD^+ was a universal molecule that was able to enhance nTreg conversion into Th17 cells in human and mice as well. Human nTregs were isolated and cultured in presence of increasing NAD^− concentrations and IL-2. […] Of note, human nTregs conversion into IL-17A^+ producing cells remained CD4^+CD25^+.
For isolation of human Treg cells, peripheral blood mononuclear cells were obtained from young healthy volunteers using density gradient centrifugation with Ficoll-Paque (STEMCELL TECHNOLOGIES, Vancouver, BC, Canada). Non-CD4^+ T cells were then depleted using biotin-conjugated monoclonal anti-human antibodies against CD8, CD14, CD15, CD16, CD19, CD36, CD56, CD123, TCRγ/δ, CD235a (Glycophorin A) and anti-biotin magnetic beads (Miltenyi Biotec). […]
For cultivation of human Treg cells, recombinant human IL-2 (EBIOSCIENCE) and superparamagnetic beads coupled with human α-CD3 and α-CD28 (LIFE TECHNOLOGIES, Carlsbad, Calif.) were used. Cells were cultured during 10 days and analyzed by flow cytometry.

[1] = test system: C57Bl/6 mice, OVA-induced allergy; experiment: Allergic mouse model (ovalbumin); format: in vivo
Description: FIGS. 20A-20C depicts data from an experiment where allergy was induced in mice (C57B1/6) with intraperitoneal injections of OVA at day 1, 7, 14 and 21. Mice were treated with OVA or a placebo solution (PBS). […] NAD+ can therefore be used in chronic inflammation and allergy such as chronic obstructive pulmonary disease and atopic disorders.
The top panel of the figure is a schematic depicting the experimental protocol.
It is understood in a clinical setting that immunosuppressants are unable to specifically target activated/memory CD4+ T cells. Thus, the inventors next investigated the specificity of NAD+ using an allergic mouse model consisting of several intraperitoneal (i.p.) injections of ovalbumin (OVA) with Alumn. As a control, a group of mice received a placebo solution (PBS). In addition, to assess the specific effect of NAD+ on CD4+CD44^highCD62L^high activated/memory T cells, a group of mice received OVA followed by NAD+ injection.

CD4+CD25+ nTregs = experiment: Functional in-vitro Treg cell assay (flow cytometry, ELISA, real-time PCR); format: cell-based, mouse
[2] = OVA i.p. day 1, 7, 14 and 21, with NAD+
[3] = nTregs with NAD+, 24 hrs of culture
[4] = nTregs with NAD+, after 4 days of culture
[5] = nTregs, increasing NAD+, 96 hrs, real-time PCR and ELISA

NC(=O)c1ccc[n+]([C@@H]2O[C@H](COP(=O)([O-])OP(=O)(O)OC[C@H]3O[C@@H](n4cnc5c(N)ncnc54)[C@H](O)[C@@H]3O)[C@@H](O)[C@H]2O)c1 [NAD+, nicotinamide adenine dinucleotide]
IFNγ cytokine production (naïve CD4+ T cells; Th0, 96 hrs, ELISA): promote a robust | IL-4 cytokine production (naïve CD4+ T cells; Th0, 96 hrs, ELISA): inhibit | IL-6 production (naïve CD4+ T cells; Th0, 96 hrs, ELISA): inhibited | IL-10 production (naïve CD4+ T cells; Th0, 96 hrs, ELISA): inhibited | IL-17 cytokine production (naïve CD4+ T cells; Th0, 96 hrs, ELISA): promote a robust | TNF-α production (naïve CD4+ T cells; Th0, 96 hrs, ELISA): inhibited | CD4+IFNγ+ cell frequency (naïve CD4+ T cells; Th0, flow cytometry): increased | CD4+IL-4+ cell frequency (naïve CD4+ T cells; Th0, flow cytometry): reduced | CD4+IL-17+ cell frequency (naïve CD4+ T cells; Th0, flow cytometry): increased | TGFβ production (naïve CD4+ T cells; Th0 polarizing conditions): no TGFβ production | IL-17A cytokine production (Human nTregs; increasing NAD+ and IL-2, ELISA): enhance | number of IL-17A+ cells (Human nTregs; increasing NAD+ and IL-2, flow cytometry): increased | CD4+CD44highCD62Lhigh activated/memory T cell frequency ([1]; OVA followed by NAD+ injection, after 21 days): targets specifically | frequencies of effector T cells induced by the antigen [1, 2]: reduces specifically | frequencies of mature B cells induced by the antigen [1, 2]: reduces specifically | cells able to produce IL-17A (CD4+CD25+ nTregs; 250 μM NAD+, 96 hrs of culture): more than 16% | nTregs apoptosis (CD4+CD25+ nTregs; Annexin V, increasing NAD+): induced | proliferation of CD4+CD25−IL-17A+Foxp3+ cells (CFSE) (CD4+CD25+ nTregs; NAD+, dose dependent manner, no exogenous IL-23): able to proliferate | frequencies of CD4+CD25+FoxP3+ cells (CD4+CD25+ nTregs; increased NAD+ concentrations, IL-2, no TGFβ/IL-6): reduced | apoptosis of CD4+CD25−IL-17A+Foxp3+ cells (annexin V) (CD4+CD25+ nTregs; increasing NAD+, 48 and 96 hrs): did not become apoptotic | IL-17A cytokine production (CD4+CD25+ nTregs; nTregs from STAT3−/− mice vs wild type, with NAD+, 96 hrs, ELISA): reduced | frequency of IL-17A+ cells (CD4+CD25+ nTregs; nTregs from STAT3−/− mice vs wild type, with NAD+, 96 hrs, flow cytometry): significant decreased, but not complete | Foxp3 mRNA level (CD4+CD25+ nTregs; [3]): significantly increased | GATA3 expression level (CD4+CD25+ nTregs; [3]): remained unchanged | RORγt mRNA level (CD4+CD25+ nTregs; [3]): > 10 fold | STAT3 mRNA level (CD4+CD25+ nTregs; [3]): > 10 fold | STAT5 expression level (CD4+CD25+ nTregs; [3]): remained unchanged | Tbx21 expression level (CD4+CD25+ nTregs; [3]): remained unchanged | Foxp3 mRNA level (CD4+CD25+ nTregs; [4]): remained significantly increased | GATA-3 mRNA level (CD4+CD25+ nTregs; [4]): decreased significantly | RORγt mRNA level (CD4+CD25+ nTregs; [4]): remained significantly increased | STAT3 mRNA level (CD4+CD25+ nTregs; [4]): remained significantly increased | STAT5 mRNA level (CD4+CD25+ nTregs; [4]): decreased significantly | Tbx21 mRNA level (CD4+CD25+ nTregs; [4]): decreased significantly | IFNγ mRNA and cytokine levels (CD4+CD25+ nTregs; [5]): decreased in a dose dependent manner | IL-4 mRNA and cytokine levels (CD4+CD25+ nTregs; [5]): decreased in a dose dependent manner | IL-10 mRNA and cytokine levels (CD4+CD25+ nTregs; [5]): decreased dramatically | IL-17A mRNA and protein levels (CD4+CD25+ nTregs; [5]): increased in a dose dependent manner | TGFβ mRNA and cytokine levels (CD4+CD25+ nTregs; [5]): decreased dramatically
